Measured values from paper PMC8913315, “Comparison of glycoside hydrolase family 3 β-xylosidases from basidiomycetes and ascomycetes reveals evolutionarily distinct xylan degradation systems” (The Journal of Biological Chemistry, 2022).

Experiments:
[1] = target: T1, PcBxl3 (Phanerodontia chrysosporium, UniProt Z9K6S9QQP9); assay: X-ray crystal structure, […] Å; assay type: binding; details: crystal soaked briefly in 100 mM xylobiose, 40% PEG 400; Endo H deglycosylated; subsite -1
T1 construct: cDNA from strain K-3, pPICZalpha A, secreted from Pichia pastoris KM71H; 743 residues; glycosylated, Endo H treated for crystals; monomer in asymmetric unit
T1 sequence (Z9K6S9QQP9 1-743): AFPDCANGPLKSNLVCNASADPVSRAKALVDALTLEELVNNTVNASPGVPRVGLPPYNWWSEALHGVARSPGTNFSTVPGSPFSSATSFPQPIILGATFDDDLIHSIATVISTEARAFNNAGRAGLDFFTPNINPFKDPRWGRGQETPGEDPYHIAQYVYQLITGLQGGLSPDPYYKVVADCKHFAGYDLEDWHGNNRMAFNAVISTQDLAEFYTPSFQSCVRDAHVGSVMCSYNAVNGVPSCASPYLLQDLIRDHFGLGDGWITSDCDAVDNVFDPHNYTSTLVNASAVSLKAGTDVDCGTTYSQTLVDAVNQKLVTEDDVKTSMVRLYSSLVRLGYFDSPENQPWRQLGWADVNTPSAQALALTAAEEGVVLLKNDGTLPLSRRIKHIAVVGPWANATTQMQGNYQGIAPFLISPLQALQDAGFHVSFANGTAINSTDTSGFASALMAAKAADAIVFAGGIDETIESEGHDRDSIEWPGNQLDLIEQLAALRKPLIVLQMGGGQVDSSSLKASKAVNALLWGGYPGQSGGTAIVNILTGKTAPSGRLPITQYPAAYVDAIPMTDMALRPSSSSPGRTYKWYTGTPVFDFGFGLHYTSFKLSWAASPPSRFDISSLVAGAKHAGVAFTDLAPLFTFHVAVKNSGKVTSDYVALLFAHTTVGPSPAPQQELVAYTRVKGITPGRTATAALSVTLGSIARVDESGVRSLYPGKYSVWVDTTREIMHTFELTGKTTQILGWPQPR

[2] = target: T2, TrXyl3A (Trichoderma reesei, UniProt Q92458); assay: X-ray crystal structure, […] Å; assay type: binding; details: crystal soaked 1 h with 14 mM 4-thioxylobiose, pH 7.0; subsites -1 and +1
T2 construct: gene bxl1; kinetics: synthetic gene codon-optimized, pPICZalpha A, secreted from Pichia pastoris KM71H; crystals: protein gift from DuPont Industrial Bioscience; 777 residues; dimer in asymmetric unit
T2 sequence (Q92458 entry or part of it): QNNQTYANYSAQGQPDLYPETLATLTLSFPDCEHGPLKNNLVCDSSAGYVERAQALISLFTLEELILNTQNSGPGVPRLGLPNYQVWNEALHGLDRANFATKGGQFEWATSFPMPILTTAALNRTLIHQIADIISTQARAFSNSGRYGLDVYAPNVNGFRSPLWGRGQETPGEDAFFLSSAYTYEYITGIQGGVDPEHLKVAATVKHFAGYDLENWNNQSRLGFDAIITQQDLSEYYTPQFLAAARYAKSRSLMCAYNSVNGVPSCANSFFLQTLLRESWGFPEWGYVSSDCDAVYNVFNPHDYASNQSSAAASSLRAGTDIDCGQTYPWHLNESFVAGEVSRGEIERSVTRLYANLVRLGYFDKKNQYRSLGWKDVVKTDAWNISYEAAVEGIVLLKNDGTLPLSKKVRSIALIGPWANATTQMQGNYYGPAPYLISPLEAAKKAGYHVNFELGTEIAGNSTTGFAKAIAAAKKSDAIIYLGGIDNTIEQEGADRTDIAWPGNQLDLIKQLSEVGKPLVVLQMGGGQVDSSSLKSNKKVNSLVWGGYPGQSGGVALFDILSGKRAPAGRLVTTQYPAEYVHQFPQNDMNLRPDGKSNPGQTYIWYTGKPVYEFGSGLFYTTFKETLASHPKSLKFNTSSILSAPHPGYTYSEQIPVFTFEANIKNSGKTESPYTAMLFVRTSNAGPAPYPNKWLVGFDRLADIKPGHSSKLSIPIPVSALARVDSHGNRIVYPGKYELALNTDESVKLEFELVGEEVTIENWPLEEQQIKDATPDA

Row | SMILES | X-ray crystal structure, 3.08 Å [1] | X-ray crystal structure, 2.1 Å [2]
1 | OC1OC[C@@H](O)[C@H](O)[C@H]1O (some centres unmarked) [X, xylose] | The structure of PcBxl3 with xylose bound in the catalytic center was also determined | –
2 | OC1OC[C@@H](S[C@@H]2OC[C@@H](O)[C@H](O)[C@H]2O)[C@H](O)[C@H]1O (some centres unmarked) [4-thioxylobiose] | – | The crystal structure of TrXyl3A bound with thioxylobiose was determined by molecular replacement
